We go through twelve compounds from US10004732B2 (Novartis AG, priority 2014, dated 2018).

For data set [1], the target named is T1, PI 3-kinase alpha (Homo sapiens, UniProt P42336). Nature of the data set: Kinase Glo Luminescent Kinase Assay (Kglo), assay A. It counts as biochemical. Conditions: read-out: Assay A PI3Kα IC50.
Target sequence in this assay (P42336 whole entry): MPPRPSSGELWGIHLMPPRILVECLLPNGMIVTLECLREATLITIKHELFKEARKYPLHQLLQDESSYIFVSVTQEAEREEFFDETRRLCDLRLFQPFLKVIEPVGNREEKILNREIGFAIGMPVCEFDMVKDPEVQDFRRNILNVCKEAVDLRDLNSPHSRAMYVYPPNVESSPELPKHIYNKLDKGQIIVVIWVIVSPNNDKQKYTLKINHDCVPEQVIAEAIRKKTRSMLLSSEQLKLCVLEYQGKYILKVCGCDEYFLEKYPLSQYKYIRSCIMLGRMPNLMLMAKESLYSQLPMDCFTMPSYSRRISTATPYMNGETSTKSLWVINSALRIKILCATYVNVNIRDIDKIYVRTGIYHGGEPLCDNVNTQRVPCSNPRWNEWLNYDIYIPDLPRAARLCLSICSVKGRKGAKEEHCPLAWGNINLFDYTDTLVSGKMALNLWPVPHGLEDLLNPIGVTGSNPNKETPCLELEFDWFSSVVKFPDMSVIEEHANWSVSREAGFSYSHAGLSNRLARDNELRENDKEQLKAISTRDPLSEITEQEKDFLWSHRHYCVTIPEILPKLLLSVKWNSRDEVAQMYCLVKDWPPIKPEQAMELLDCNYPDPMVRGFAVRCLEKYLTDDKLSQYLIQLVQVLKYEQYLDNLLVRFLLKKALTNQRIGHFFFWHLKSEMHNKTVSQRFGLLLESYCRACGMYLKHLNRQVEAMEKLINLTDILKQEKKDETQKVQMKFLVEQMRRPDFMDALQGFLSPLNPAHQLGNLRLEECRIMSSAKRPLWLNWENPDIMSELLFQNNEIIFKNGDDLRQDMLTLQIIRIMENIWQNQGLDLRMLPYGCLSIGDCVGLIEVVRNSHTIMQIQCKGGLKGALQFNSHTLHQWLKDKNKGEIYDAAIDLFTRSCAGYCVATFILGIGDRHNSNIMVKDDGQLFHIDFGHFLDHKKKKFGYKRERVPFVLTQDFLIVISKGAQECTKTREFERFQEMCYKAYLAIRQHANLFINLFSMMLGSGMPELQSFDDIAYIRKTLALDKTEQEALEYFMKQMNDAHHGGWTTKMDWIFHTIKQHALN
Data set [2] deals with T2, PI 3-kinase beta (Homo sapiens, UniProt P42338). Kind of data set: Kinase Glo Luminescent Kinase Assay (Kglo), assay B. It counts as biochemical. The settings on record: read-out: Assay B PI3Kβ IC50.
Target sequence in this assay (P42338 whole entry): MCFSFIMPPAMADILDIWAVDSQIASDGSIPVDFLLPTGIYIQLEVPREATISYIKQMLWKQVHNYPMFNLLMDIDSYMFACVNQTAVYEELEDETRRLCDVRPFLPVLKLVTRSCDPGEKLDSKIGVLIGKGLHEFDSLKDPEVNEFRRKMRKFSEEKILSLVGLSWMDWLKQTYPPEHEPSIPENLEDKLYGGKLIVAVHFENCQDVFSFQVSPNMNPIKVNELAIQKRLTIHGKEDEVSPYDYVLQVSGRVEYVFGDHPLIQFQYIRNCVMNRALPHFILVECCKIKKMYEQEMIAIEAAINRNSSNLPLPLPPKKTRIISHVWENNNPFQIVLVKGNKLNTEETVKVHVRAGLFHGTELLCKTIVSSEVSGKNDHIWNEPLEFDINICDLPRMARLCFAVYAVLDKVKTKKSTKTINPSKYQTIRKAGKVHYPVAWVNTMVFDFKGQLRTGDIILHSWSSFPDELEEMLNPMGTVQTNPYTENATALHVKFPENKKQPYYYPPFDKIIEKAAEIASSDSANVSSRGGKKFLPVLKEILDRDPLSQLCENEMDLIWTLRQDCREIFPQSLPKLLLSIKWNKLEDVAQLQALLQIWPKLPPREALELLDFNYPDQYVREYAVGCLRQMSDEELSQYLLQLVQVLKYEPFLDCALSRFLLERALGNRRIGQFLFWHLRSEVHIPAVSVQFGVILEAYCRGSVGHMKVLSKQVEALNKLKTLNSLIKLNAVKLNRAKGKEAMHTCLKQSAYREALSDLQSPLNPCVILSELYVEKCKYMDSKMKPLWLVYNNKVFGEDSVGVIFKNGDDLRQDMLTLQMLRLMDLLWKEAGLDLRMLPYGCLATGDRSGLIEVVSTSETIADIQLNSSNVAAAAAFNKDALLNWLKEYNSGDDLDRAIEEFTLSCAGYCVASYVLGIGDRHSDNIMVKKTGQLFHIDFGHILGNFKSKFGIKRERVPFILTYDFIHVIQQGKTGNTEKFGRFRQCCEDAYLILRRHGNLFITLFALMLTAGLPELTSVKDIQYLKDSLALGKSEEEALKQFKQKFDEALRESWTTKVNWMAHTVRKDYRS
Target sequence in this assay (P27986 461-568 partner): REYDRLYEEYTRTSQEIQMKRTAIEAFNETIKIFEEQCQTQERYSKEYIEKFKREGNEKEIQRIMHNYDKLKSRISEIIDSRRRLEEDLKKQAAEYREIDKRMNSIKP
Experimental: (§1) Kinase Glo Luminescent Kinase Assay (Kglo) for Pb 3-Kinase Alpha (A), Pb 3-Kinase Beta (B), Vps34 (C), Pb 4-Kinase Beta (D)
(§2) The Kinase Glo Luminescent Kinase Assay (Promega, Madison/Wis., USA) is a homogeneous HTS method of measuring kinase activity by quantifying the amount of ATP remaining in solution following a kinase reaction.
(§3) L-α-phosphatidylinositol (PI), provided as 10 mg/ml solution in methanol, was transferred into a glass tube and dried under a nitrogen beam. It was then resuspended in 3% OctylGlucoside (1-0-n-octyl-beta-D-glucopyranoside) by vortexing and stored at 4° C. 5 μL of a mix of PI/OctylGlucoside with the PI 3-kinase alpha and PI 3-kinase beta subtypes, or Vps34 or PI 4-kinase beta were added. Kinase reactions were started by the addition of 5 μl of an ATP-mix containing in a final volume 10 μL 10 mM TRIS-HCl pH 7.5, 3 mM MgCl2, 50 mM NaCl, 0.05% CHAPS, 1 mM DTT and 1 μM ATP at room temperature.
(§4) All fits were performed with the program XLfit4 (ID Business Solutions, Guildford, UK).
The target in the next data set is Vps34 (Homo sapiens, UniProt Q8NEB9). Nature of the data set: Kinase Glo Luminescent Kinase Assay (Kglo), assay C. In kind it is biochemical. Conditions: read-out: Assay C VPS34 IC50.
Another data set concerns the target PI 4-kinase beta (Homo sapiens, UniProt Q9UBF8). Nature of the data set: Kinase Glo Luminescent Kinase Assay (Kglo), assay D. It counts as biochemical. Conditions: read-out: Assay D PI4Kβ IC50.
In data set [3] the target is T3, PI 3-kinase gamma (Homo sapiens, UniProt P48736). Kind of data set: TR-FRET Adapta assay, assay E. It counts as biochemical. Conditions: read-out: Assay E PI3Kγ IC50.
Data set [4] deals with T3, PI 3-kinase gamma. Kind of data set: Cellular U937 AKT assay K2 (HTRF). In kind it is cell-based. The settings on record: U937 cells, K2 format; read-out: Assay K2 PI3Kγ IC50.
Experimental: In assays K1 and K2, the compounds were tested for their ability to inhibit the production of phosphorylated AKT (Protein Kinase B) generated in a PI 3-kinase gamma isoform-dependent process in a U937 human cell line.
Cellular U937 AKT Assay for PI 3-Kinase Gamma (K2)
U937 cells are split every 3-4 days: 5×10^6 cells/flask (175 cm^2) in 40 ml.
Semi-automated preparation of cell lysates: Cells were resuspended in HBSS, seeded (200′000 cells/well/60 μl) into a 384-well plate and incubated in a humidified 37° C., 5% CO2 incubator for 1.5 hours. The compounds were diluted with HBSS and 40 μl were added to the starved cells (except for wells 24 I-P). […] The cells were then incubated for 30 minutes at 37° C. and 5% CO2. Stimulation occurred during 3 minutes by addition of 20 μl MIP1α (final 10 ng/ml, diluted in HBSS) in the incubator. Wells 24 A-H were only stimulated with HBSS.
The stimulation was then stopped by putting the cell plates on ice (filled with cold water). The cells were then centrifuged at 1200 rpm and 4° C. for 3 minutes.
80 μl of supernatant was removed. The cells were again centrifuged at 1200 rpm and 4° C. for 3 minutes. The supernatant was then removed by turning plates upside down and 30 μl of lysis buffer were added. The plate was incubated at room temperature for 30 minutes under shaking. 16 μl were then transferred to a ProxiPlate Plus 384-well. 4 μl of the master mix (each conjugate diluted 1:20 with detection reagent) were added to each well and the plate was kept in the dark at room temperature for 4 hours.
The target in data set [5] is T4, PI 3-kinase delta (Homo sapiens, UniProt O00329). Nature of the data set: TR-FRET Adapta assay, assay F. The settings on record: read-out: Assay F PI3Kδ IC50.
Target sequence in this assay (O00329 whole entry): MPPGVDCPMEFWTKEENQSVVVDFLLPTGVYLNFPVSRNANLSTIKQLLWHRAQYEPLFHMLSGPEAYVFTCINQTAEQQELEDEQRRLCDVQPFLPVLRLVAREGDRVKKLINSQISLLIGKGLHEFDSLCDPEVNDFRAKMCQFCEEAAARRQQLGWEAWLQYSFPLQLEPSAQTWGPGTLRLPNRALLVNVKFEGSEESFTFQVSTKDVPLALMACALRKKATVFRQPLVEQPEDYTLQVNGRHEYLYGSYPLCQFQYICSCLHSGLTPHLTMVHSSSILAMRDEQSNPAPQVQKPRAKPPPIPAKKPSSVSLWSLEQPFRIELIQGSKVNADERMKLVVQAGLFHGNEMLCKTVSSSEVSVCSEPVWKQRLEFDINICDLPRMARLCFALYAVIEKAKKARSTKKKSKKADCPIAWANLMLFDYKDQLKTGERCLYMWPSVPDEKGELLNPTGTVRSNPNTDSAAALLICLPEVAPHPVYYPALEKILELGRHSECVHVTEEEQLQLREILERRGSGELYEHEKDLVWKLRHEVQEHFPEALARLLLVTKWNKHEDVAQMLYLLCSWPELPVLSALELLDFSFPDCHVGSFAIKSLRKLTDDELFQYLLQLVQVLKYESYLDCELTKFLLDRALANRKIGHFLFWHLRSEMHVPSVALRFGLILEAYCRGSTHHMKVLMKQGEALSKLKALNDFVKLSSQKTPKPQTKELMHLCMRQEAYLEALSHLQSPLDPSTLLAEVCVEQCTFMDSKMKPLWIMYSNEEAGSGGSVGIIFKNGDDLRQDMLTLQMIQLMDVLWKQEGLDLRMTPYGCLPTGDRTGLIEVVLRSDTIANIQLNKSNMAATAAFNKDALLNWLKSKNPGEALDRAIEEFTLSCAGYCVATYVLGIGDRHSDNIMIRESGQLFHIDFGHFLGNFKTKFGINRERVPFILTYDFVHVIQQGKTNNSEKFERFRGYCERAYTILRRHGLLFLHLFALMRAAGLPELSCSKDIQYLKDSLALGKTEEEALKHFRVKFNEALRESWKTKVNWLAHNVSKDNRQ
Target sequence in this assay (P27986 461-568 partner): as the sequence (P27986 461-568 partner) above
A short description of data set [6]: Microsomal clearance assay (M). The settings on record: intrinsic clearance in rat liver microsomes.
Experimental: The experiments were performed in 96-well glass plates at 37° C. on an automated Tecan EVO platform. Test compounds at a concentration of 10 mM in pure DMSO were diluted 1:1000 in water to 10 μM. […] Reactions were initiated by the addition of 150 μL of a cofactor solution containing 2 mM NADPH.
Data set [7] has as its target T1, PI 3-kinase alpha. Nature of the data set: Cellular assay H1, p-Akt (S473) in Rat-1 cells, Surefire format. It counts as cell-based. The settings on record: non-asterisked data: version H1 (Surefire format), Rat-1 cells; read-out: Assay H PI3Kα IC50.
Target sequence in this assay (P42336 whole entry): as the sequence (P42336 whole entry) above
Target sequence in this assay (Q63787 whole entry partner): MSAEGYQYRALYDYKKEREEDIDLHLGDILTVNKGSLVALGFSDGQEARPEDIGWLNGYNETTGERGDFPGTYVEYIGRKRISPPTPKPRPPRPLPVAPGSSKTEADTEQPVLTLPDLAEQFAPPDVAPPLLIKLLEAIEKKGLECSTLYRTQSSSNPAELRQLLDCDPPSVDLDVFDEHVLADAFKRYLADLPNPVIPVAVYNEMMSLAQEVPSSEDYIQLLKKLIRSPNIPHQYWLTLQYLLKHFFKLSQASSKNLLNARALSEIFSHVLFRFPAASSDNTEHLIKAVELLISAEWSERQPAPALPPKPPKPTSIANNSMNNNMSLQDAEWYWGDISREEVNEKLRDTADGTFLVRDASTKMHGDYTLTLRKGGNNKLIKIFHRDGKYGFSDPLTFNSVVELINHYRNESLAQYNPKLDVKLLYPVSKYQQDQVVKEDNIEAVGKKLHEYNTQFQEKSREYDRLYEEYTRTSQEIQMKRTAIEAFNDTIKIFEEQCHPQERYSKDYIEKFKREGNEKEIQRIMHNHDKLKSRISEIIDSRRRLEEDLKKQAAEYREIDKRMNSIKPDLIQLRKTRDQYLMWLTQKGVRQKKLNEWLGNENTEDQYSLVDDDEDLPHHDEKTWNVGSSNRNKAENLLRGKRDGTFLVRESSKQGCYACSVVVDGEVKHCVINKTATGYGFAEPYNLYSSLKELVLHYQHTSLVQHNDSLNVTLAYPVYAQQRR
The target in data set [8] is T2, PI 3-kinase beta. Kind of data set: Cellular assay I1, p-Akt (S473) in Rat-1 cells, Surefire format. It counts as cell-based. The settings on record: non-asterisked data: version I1 (Surefire format), Rat-1 cells; read-out: Assay I PI3Kβ IC50.
Target sequence in this assay (P42338 whole entry): as the sequence (P42338 whole entry) above
Target sequence in this assay (Q63787 whole entry partner): as the sequence (Q63787 whole entry partner) above
In data set [9] the target is T4, PI 3-kinase delta. Nature of the data set: Cellular assay J1, p-Akt (S473) in Rat-1 cells, Surefire format. It counts as cell-based. Conditions: non-asterisked data: version J1 (Surefire format), Rat-1 cells; read-out: Assay J PI3Kδ IC50.
Target sequence in this assay (O00329 whole entry): as the sequence (O00329 whole entry) above
Target sequence in this assay (Q63787 whole entry partner): as the sequence (Q63787 whole entry partner) above
A further data set concerns the target mTOR (Homo sapiens, UniProt P42345). Kind of data set: Lanthascreen kinase binding assay, assay G. The settings on record: read-out: Assay G mTOR IC50.
Data set [10] deals with T3, PI 3-kinase gamma. Nature of the data set: Cellular U937 AKT assay K1 (MSD). Conditions: U937 cells, K1 format; read-out: Assay K1 PI3Kγ IC50. In kind it is cell-based.

Experimental for PI 4-kinase beta: as §1, §2, §3, §4
Experimental for mTOR: Lanthascreen™ Kinase Binding Assay for mTOR (G)
Binding of an inhibitor to the kinase competes for binding with the tracer, resulting in a loss of FRET.
50 nL of compound dilutions were dispensed onto white 384-well small volume polystyrene plate.

Take `Cc1ncc(-c2nc(-c3cc(S(=O)(=O)NC4CCOCC4)ccc3C)cnc2N)s1` [Example 45.3, 3-(5-Amino-6-(2-methylthiazol-5-yl)pyrazin-2-yl)-4-methyl-N-(tetrahydro-2H-pyran-4-yl)benzenesulfonamide]: the IC50 on PI 3-kinase alpha [1] came out at 40 nM; at PI 3-kinase beta [2] it was 240 nM; on Vps34, 1600 nM; at PI 4-kinase beta, 1600 nM; on PI 3-kinase gamma [3] it was 13 nM; on PI 3-kinase gamma [4] it was 494 nM. Moreover, the IC50 at PI 3-kinase delta [5] was found to be 100 nM. For the same compound, in data set [6], the “Assay M RLM CI(int)” value was determined as 78 µL/min/mg.

In the case of `CCN1CCC[C@H]1CNS(=O)(=O)c1ccc(C)c(-c2cnc(N)c(-c3cn(C)nc3C)n2)c1` [Example 128.1, (S)-3-(5-Amino-6-(1,3-dimethyl-1H-pyrazol-4-yl)pyrazin-2-yl)-N-((1-ethylpyrrolidin-2-yl)methyl)-4-methylbenzenesulfonamide], the IC50 at PI 3-kinase alpha [1] was 1000 nM; at PI 3-kinase beta [2] it was 3000 nM; on Vps34 it was more than 10000 nM; at PI 4-kinase beta it was more than 10000 nM; at PI 3-kinase alpha [7], more than 10000 nM; on PI 3-kinase beta [8] it was more than 10000 nM. The IC50 at PI 3-kinase delta [9] was found to be 1640 nM; on PI 3-kinase gamma [4], 332 nM; at PI 3-kinase delta [5] it was 250 nM.

Turning to `COC1(C)CN(S(=O)(=O)c2ccc(C)c(-c3cnc(N)c(-c4cn(C)nc4C)n3)c2)C1` [Example 102, 3-(1,3-Dimethyl-1H-pyrazol-4-yl)-5-(5-(3-methoxy-3-methylazetidin-1-ylsulfonyl)-2-methylphenyl)pyrazin-2-amine], the IC50 is 550 nM on PI 3-kinase alpha [1]; 1800 nM at PI 3-kinase beta [2]; more than 10000 nM on Vps34; 5900 nM on PI 4-kinase beta; 150 nM on PI 3-kinase gamma [3]; 2900 nM at mTOR. For the same compound, the IC50 on PI 3-kinase alpha [7] was 4530 nM; at PI 3-kinase beta [8] it was 5300 nM; on PI 3-kinase delta [9] it was 1330 nM; on PI 3-kinase gamma [4], 211 nM; at PI 3-kinase delta [5], 900 nM. Besides, the “Assay M RLM CI(int)” value in data set [6] turned out to be 75 µL/min/mg.

In the case of `CCN1CCC[C@@H]1CNS(=O)(=O)c1ccc(C)c(-c2cnc(N)c(-c3cnc(C)s3)n2)c1` [Example 41, (R)-3-(5-Amino-6-(2-methylthiazol-5-yl)pyrazin-2-yl)-N-((1-ethylpyrrolidin-2-yl)methyl)-4-methylbenzenesulfonamide], the IC50 was 110 nM at PI 3-kinase alpha [1]; 250 nM at PI 3-kinase beta [2]; 7700 nM on Vps34; 9400 nM on PI 4-kinase beta; 10 nM on PI 3-kinase gamma [3]; more than 3000 nM on PI 3-kinase alpha [7]. Also, the IC50 on PI 3-kinase beta [8] is 980 nM; at PI 3-kinase delta [9], less than 3 nM; on PI 3-kinase gamma [10], 39 nM; on PI 3-kinase gamma [4] it was 24 nM; on PI 3-kinase delta [5], 20 nM. In data set [6], the “Assay M RLM CI(int)” value is 314 µL/min/mg.

Turning to `Cc1ccc(S(=O)(=O)NCC2(C)CCCO2)cc1-c1cnc(N)c(-c2cn(C)nc2C)n1` (stereo not drawn) [Example 128.4, 3-(5-Amino-6-(1,3-dimethyl-1H-pyrazol-4-yl)pyrazin-2-yl)-4-methyl-N-((2-methyltetrahydrofuran-2-yl)methyl)benzenesulfonamide], the IC50 at PI 3-kinase alpha [1] is 100 nM; on PI 3-kinase beta [2], 1700 nM; on Vps34 it was more than 10000 nM; on PI 4-kinase beta it was more than 10000 nM; at PI 3-kinase gamma [3] it was 45 nM; at PI 3-kinase alpha [7], 1510 nM. Also, the IC50 on PI 3-kinase beta [8] was 1550 nM; at PI 3-kinase delta [9], 780 nM; at PI 3-kinase gamma [10], 104 nM; at PI 3-kinase gamma [4], 280 nM; on PI 3-kinase delta [5] it was 500 nM. In addition, in data set [6], the “Assay M RLM CI(int)” value stood at 134 µL/min/mg.

As to `Cc1cc(-c2nc(-c3cc(S(=O)(=O)NC[C@H]4CCCO4)ccc3C)cnc2N)ccn1` [Example 129.12, (R)-3-(5-amino-6-(2-methylpyridin-4-yl)pyrazin-2-yl)-4-methyl-N-((tetrahydrofuran-2-yl)methyl)benzenesulfonamide], the concentration for half-maximal inhibition (IC50) on PI 3-kinase alpha [1] is 1200 nM; on PI 3-kinase beta [2], more than 9100 nM; at Vps34 it was more than 9100 nM; on PI 4-kinase beta, more than 9100 nM; at PI 3-kinase gamma [3] it was 58 nM; on mTOR, 8700 nM. Also, the IC50 is 4290 nM on PI 3-kinase alpha [7]; more than 10000 nM on PI 3-kinase beta [8]; 4970 nM on PI 3-kinase delta [9]; 804 nM at PI 3-kinase gamma [10]; 1600 nM on PI 3-kinase gamma [4]; 910 nM on PI 3-kinase delta [5]. For the same compound, in data set [6], the “Assay M RLM CI(int)” value is 99 µL/min/mg.

In the case of `Cc1ccc(S(=O)(=O)NCC(C)(C)O)cc1-c1cnc(N)c(-c2ccoc2)n1` [Example 39, 3-(5-Amino-6-(furan-3-yl)pyrazin-2-yl)-N-(2-hydroxy-2-methylpropyl)-4-methylbenzenesulfonamide], the IC50 at PI 3-kinase alpha [1] is 790 nM; on PI 3-kinase beta [2], 3950 nM; at Vps34, more than 9550 nM; on PI 4-kinase beta, 7050 nM; at PI 3-kinase gamma [3], 67 nM; at mTOR, more than 9550 nM. Besides, the IC50 at PI 3-kinase gamma [10] came out at 192 nM; at PI 3-kinase gamma [4], 999 nM; at PI 3-kinase delta [5], 1070 nM. Further, the “Assay M RLM CI(int)” value in [6] worked out at 88 µL/min/mg.

In the case of `Cc1cc(-c2nc(-c3cc(S(=O)(=O)NC[C@H]4CCNC4)ccc3C)cnc2N)ccn1` [Example 129.36, (S)-3-(5-amino-6-(2-methylpyridin-4-yl)pyrazin-2-yl)-4-methyl-N-(pyrrolidin-3-ylmethyl)benzenesulfonamide], the IC50 on PI 3-kinase alpha [1] is 1300 nM; on PI 3-kinase beta [2], 6900 nM; on Vps34, more than 9100 nM; at PI 4-kinase beta, more than 9100 nM; on PI 3-kinase gamma [3], 110 nM; on mTOR, more than 9100 nM. Further, the IC50 on PI 3-kinase alpha [7] is more than 10000 nM; on PI 3-kinase beta [8], more than 3000 nM; at PI 3-kinase gamma [10], 6210 nM; at PI 3-kinase gamma [4], more than 10000 nM; at PI 3-kinase delta [5], 960 nM. For the same compound, the “Assay M RLM CI(int)” value in [6] is 15 µL/min/mg.

For `Cc1cc(-c2nc(-c3cc(S(=O)(=O)NC[C@@H]4CCNC4)ccc3C)cnc2N)ccn1` [Example 129.35, (R)-3-(5-amino-6-(2-methylpyridin-4-yl)pyrazin-2-yl)-4-methyl-N-(pyrrolidin-3-ylmethyl)benzenesulfonamide], the IC50 at PI 3-kinase alpha [1] is 2100 nM; on PI 3-kinase beta [2], more than 9100 nM; at Vps34, more than 9100 nM; at PI 4-kinase beta it was more than 9100 nM; at PI 3-kinase gamma [3] it was 89 nM; at mTOR, more than 9100 nM. For the same compound, the IC50 was more than 10000 nM at PI 3-kinase gamma [4] and 1200 nM at PI 3-kinase delta [5].

Consider `Cc1ncc(-c2nc(-c3cc(S(=O)(=O)N4CC(CO)C4)ccc3C)cnc2N)s1` [Example 45.8, (1-((3-(5-Amino-6-(2-methylthiazol-5-yl)pyrazin-2-yl)-4-methylphenyl)sulfonyl)azetidin-3-yl)methanol], for which the IC50 on PI 3-kinase alpha [1] is 90 nM; at PI 3-kinase beta [2], 590 nM; on Vps34 it was 2000 nM; at PI 4-kinase beta it was 3300 nM; on PI 3-kinase gamma [3] it was 130 nM; on PI 3-kinase gamma [4], 317 nM. Also, at PI 3-kinase delta [5], the IC50 worked out at 320 nM. For the same compound, in [6], the “Assay M RLM CI(int)” value was found to be 67 µL/min/mg.

Consider `Cc1ccc(S(=O)(=O)N2CC(F)(F)C2)cc1-c1cnc(N)c(-n2cncn2)n1` [Example 127.4], for which the IC50 on PI 3-kinase alpha [1] was 2550 nM; on PI 3-kinase beta [2], 6550 nM; at Vps34 it was more than 9550 nM; at PI 4-kinase beta, 4200 nM; at PI 3-kinase gamma [3] it was 260 nM; at mTOR, more than 9550 nM. Moreover, the IC50 on PI 3-kinase gamma [10] was determined as 1970 nM; at PI 3-kinase gamma [4] it was 1490 nM; on PI 3-kinase delta [5], 2500 nM. Further, the “Assay M RLM CI(int)” value in data set [6] amounted to 85 µL/min/mg.

Regarding `Cc1ncc(-c2nc(-c3cc(S(=O)(=O)NC[C@H]4CCOC4)ccc3C)cnc2N)s1` [Example 42, (R)-3-(5-Amino-6-(2-methylthiazol-5-yl)pyrazin-2-yl)-4-methyl-N-((tetrahydrofuran-3-yl)methyl)benzenesulfonamide], the IC50 on PI 3-kinase alpha [1] worked out at 30 nM; on PI 3-kinase beta [2], 660 nM; at Vps34, 4650 nM; on PI 4-kinase beta, 3500 nM; on PI 3-kinase gamma [3], 7 nM; on PI 3-kinase alpha [7], 130 nM. Also, the IC50 was 790 nM at PI 3-kinase beta [8]; 160 nM on PI 3-kinase delta [9]; 14 nM at PI 3-kinase gamma [10]; 18 nM on PI 3-kinase gamma [4]; 30 nM at PI 3-kinase delta [5]. In addition, in data set [6], the “Assay M RLM CI(int)” value came out at 160 µL/min/mg.
